pIC50: −log10 of the molar value.
Columns and labels:
Homo sapiens = species: Homo sapiens; assay: In vitro ability to inhibit the aggregation of ADP-stimulated human platelets; type: functional
[1] = molecular target: Integrin alpha-IIb/beta-3 (Homo sapiens, UniProt P05106+P08514); assay: In vitro inhibitory activity against blockage of binding of fibrinogen to purified human GPIIbIIIa; type: protein-complex assay
Integrin alpha-IIb/beta-3, sequence (P05106 27-788 limits assumed): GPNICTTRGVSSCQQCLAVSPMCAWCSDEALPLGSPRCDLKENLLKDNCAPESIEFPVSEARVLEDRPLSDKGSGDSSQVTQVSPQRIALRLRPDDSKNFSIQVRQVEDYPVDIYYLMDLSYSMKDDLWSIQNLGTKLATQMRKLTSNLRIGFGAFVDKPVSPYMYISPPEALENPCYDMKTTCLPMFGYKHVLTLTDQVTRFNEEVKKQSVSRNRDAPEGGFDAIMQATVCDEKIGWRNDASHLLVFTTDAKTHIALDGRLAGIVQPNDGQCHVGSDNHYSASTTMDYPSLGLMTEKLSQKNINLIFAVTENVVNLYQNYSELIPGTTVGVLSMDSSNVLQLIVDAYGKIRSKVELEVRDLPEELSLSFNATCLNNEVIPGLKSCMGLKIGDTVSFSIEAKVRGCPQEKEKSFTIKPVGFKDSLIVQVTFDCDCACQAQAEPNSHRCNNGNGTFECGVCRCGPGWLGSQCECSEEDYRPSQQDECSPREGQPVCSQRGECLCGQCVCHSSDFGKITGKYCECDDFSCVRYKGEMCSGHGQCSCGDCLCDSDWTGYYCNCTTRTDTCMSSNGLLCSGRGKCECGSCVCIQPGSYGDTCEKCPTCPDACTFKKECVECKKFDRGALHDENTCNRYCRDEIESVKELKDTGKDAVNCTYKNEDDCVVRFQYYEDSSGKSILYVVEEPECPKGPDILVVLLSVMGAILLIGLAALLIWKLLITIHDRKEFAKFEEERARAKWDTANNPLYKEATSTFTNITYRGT
Integrin alpha-IIb/beta-3, sequence (P08514 32-887 limits assumed): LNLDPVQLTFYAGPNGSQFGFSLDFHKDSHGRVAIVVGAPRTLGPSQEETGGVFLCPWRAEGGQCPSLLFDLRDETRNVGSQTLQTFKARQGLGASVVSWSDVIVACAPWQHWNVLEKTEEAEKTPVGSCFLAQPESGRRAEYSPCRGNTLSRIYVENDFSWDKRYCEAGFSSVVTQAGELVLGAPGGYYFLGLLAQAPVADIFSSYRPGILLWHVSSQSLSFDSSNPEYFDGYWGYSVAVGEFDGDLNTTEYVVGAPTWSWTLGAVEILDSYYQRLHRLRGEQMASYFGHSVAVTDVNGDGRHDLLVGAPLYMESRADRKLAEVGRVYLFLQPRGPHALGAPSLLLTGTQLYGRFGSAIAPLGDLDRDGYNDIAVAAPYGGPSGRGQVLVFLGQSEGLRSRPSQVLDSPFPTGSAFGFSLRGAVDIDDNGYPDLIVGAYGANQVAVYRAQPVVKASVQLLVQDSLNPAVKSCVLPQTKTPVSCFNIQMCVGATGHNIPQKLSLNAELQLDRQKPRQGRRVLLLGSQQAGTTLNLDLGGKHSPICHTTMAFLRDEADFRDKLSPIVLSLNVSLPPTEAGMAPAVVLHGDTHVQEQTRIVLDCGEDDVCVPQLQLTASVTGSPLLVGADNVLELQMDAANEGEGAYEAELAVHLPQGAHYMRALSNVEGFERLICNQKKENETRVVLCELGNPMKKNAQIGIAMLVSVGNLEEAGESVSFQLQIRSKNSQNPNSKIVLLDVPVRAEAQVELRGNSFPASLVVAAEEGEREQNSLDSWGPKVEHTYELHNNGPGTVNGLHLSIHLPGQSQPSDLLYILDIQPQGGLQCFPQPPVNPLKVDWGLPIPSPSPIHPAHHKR
Integrin alpha-IIb/beta-3, sequence (P08514 891-1039 limits assumed): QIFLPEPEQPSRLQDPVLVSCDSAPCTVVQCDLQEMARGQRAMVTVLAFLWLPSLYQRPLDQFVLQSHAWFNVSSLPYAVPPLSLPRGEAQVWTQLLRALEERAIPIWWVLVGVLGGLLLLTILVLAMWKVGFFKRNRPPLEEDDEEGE

| pIC50 (Homo sapiens) | pIC50 [1] | SMILES |
| --- | --- | --- |
| 5.89 | 8.10 | CCCCOC(=O)N[C@@H](CNC(=O)C1CCC2(CC1)CCN(c1ccncc1)CC2)C(=O)O |
| 7.40 | – | Cc1noc(C)c1S(=O)(=O)N[C@@H](CNC(=O)C1CCC2(CC1)CCN(c1ccncc1)CC2)C(=O)O |
| 6.75 | – | CCCCS(=O)(=O)N[C@@H](CNC(=O)C1CCC2(CC1)CCN(c1ccncc1)CC2)C(=O)O |
| 4.30 | 4.00 | O=C(O)CCC(=O)N1CCC2(CCC(C(=O)N3CCC(C4CCNCC4)CC3)CC2)CC1 |
| 5.57 | 8.70 | O=C(N[C@@H](CNC(=O)C1CCC2(CC1)CCN(c1ccncc1)CC2)C(=O)O)OCc1ccccc1 |
| 4.91 | 6.08 | N[C@@H](CNC(=O)C1CCC2(CC1)CCN(c1ccncc1)CC2)C(=O)O |
| 6.54 | 6.60 | O=C(O)CN1CCC2(CCC(C(=O)N3CCC(C4CCNCC4)CC3)CC2)CC1 |
| 4.41 | – | N=C(N)c1ccc(C(=O)N2CCC3(CCC(C(=O)NCC(=O)O)CC3)CC2)cc1 |
| 5.40 | 6.48 | CC(CNC(=O)C1CCC2(CC1)CCN(c1ccncc1)CC2)CC(=O)O (stereo not drawn) |
| 4.71 | 4.82 | N=C(N)c1ccc(C(=O)N2CCC3(CCC(C(=O)O)CC3)CC2)cc1 |
| 4.92 | 6.50 | O=C(O)CCCNC(=O)C1CCC2(CC1)CCN(c1ccncc1)CC2 |
| 4.43 | 5.30 | N=C(N)c1ccc(N2CCC3(CCC(C(=O)NCCCC(=O)O)CC3)CC2)cc1 |
| 4.30 | 4.00 | O=C(O)CCCC(=O)N1CCC2(CCC(C(=O)N3CCC(C4CCNCC4)CC3)CC2)CC1 |
| 6.05 | 6.80 | O=C(O)CNC1CCC2(CC1)CCN(c1ccncc1)CC2 |
| 6.93 | 6.44 | O=C(O)CN1CCC2(CCC(C(=O)N3CCN(c4ccncc4)CC3)CC2)CC1 |
| 4.84 | 6.21 | C[C@@H](CC(=O)O)NC(=O)C1CCC2(CC1)CCN(c1ccncc1)CC2 |
| 5.10 | 5.46 | O=C(O)CCN1CCC2(CCC(C(=O)N3CCN(c4ccncc4)CC3)CC2)CC1 |
| 5.26 | 7.22 | N=C(N)c1ccc(N2CCC3(CCC(C(=O)NCCC(=O)O)CC3)CC2)cc1 |
| 5.96 | 6.60 | O=C(O)COC1CCC2(CC1)CCN(c1ccncc1)CC2 |
| 5.35 | – | O=C(O)CCNC1CCC2(CC1)CCN(c1ccncc1)CC2 |
| 6.75 | – | Cc1ccc(S(=O)(=O)N[C@@H](CNC(=O)C2CCC3(CC2)CCN(c2ccncc2)CC3)C(=O)O)cc1 |
| 4.11 | – | O=C(O)C[C@@H](NC(=O)C1CCC2(CC1)CCN(c1ccncc1)CC2)c1ccccc1 |

— ChEMBL document CHEMBL1134062, “Spirocyclic nonpeptide glycoprotein IIb-IIIa antagonists. Part 2: design of potent antagonists containing the 3-azaspiro[5.5]undecanes” (Bioorg Med Chem Lett, 2001)
